From patent US9718861B2 (Universitaet Leipzig, priority 2011, dated 2017)
Where two headings read alike, the source gives them in different places. Where a SMILES comes first, the peptide text is derived from it. Where no end group is shown, it is not given here. [ ]: non-standard residue; d: D form. d1Nal = N[C@H](Cc1cccc2ccccc12)C(=O)O; Cha = N[C@@H](CC1CCCCC1)C(=O)O; Phg = N[C@H](C(=O)O)c1ccccc1; Nva = CCC[C@H](N)C(=O)O

What was measured:
ghrelin receptor [1] = target: T1, ghrelin receptor (Homo sapiens, UniProt Q92847); experiment: Inositol trisphosphate turnover assay in COS-7 cells transfected with the ghrelin receptor; type: cell-based; set-up: expressed in transfected cells; settings: for Emax: COS-7; for EC50: mean ± SEM of n experiments; for Emax ± SEM: efficacy
Target sequence in this assay (Q92847 whole entry): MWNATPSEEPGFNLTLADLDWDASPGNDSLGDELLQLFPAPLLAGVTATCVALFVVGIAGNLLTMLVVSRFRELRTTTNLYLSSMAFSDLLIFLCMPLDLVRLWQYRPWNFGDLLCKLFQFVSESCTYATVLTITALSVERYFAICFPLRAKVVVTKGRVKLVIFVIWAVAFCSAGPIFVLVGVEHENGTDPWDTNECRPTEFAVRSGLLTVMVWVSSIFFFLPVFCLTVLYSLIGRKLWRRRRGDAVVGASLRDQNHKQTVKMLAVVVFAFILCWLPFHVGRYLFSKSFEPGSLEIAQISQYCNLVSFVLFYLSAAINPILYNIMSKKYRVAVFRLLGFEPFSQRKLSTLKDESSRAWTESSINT
Description: COS-7 cells were grown in a humidified atmosphere at 37° C. and 5% CO2 in Dulbecco's modified Eagle's medium with higher glucose supplemented with 10% (v/v) FCS and 1% (v/v) penicillin/streptomycin. COS-7 cells were seeded out in 24-well plates (80.000-100.000 cells/well) in DMEM with 10% FCS. […] Each well was treated with 0.3 μg DNA and 0.9 μl metafectene.
The day after transfection, or the day after seeding for stable cells, cells were incubated with myo-[2-^3H]-inositol (2 μCi/ml) for 18 h and washed with DMEM/LiCl. Stimulation was then carried out with seven to nine different peptide concentrations in DMEM containing 10 mM LiCl, for 2 h, in duplicates. Stimulation was stopped by aspirating the medium and subsequently, cells were lysed with 150 μl of 0.1M NaOH for 5 min at RT. 50 μl of 0.2M HCOOH were added and the solution was diluted using 1 ml dilution buffer. […] Obtained data was analyzed with GraphPad Prism 3.0 (GraphPad Software). Therefore, dpm values are assigned to the corresponding peptide concentrations. Non-linear regression was used to obtain sigmoidal curves. For better comparability, dpm values were normalized to the constitutive activity. Constitutive activity of 100% represents the basal activity, the activity of the receptor without the influence of peptides. Emax is the efficacy of the peptide and represents the difference between constitutive activity and activity at maximal effect of the peptide. EC50 is the peptide concentration at half-maximal effect.

rats = experiment: ICV administration to rats, food intake; type: in vivo; settings: 1 nmol/rat, n=6, vs vehicle 0.9% saline with DMSO
Description: For in vivo studies, peptide 3 was delivered intracerebroventricularly. The rats were stereotaxically implanted with a stainless steel cannula (Holm Finmekanik AS, Copenhagen, Denmark) aimed at the right lateral ventricle 1 mm caudal and 1.5 mm lateral to bregma and 4 mm ventral to cranium externa. Rats were left to recover in the metabolic cages (MANI Feed Win, Ellegaard Systems) for adaptation for at least 5 days, only interrupted by daily handling and body weight measurements. With these cages we could accurately measure the food and water intake of rats for up to 48 hours. The powdered diet used eliminated food hoarding and spill. Cannula placement was confirmed by measuring the drinking response to angiotensin injection (100 nmol/rat). Administration of peptide was done with 1 nmol/rat (n=6). As a negative control, a vehicle solution of 0.9% saline with DMSO (n=7) was used.

ghrelin receptor [2] = target: T1, ghrelin receptor; settings: background, cited from earlier work
Target sequence in this assay (Q92847 whole entry, species assumed): as the sequence (Q92847 whole entry) above

ghrelin receptor [3] = target: T1, ghrelin receptor; settings: background; cited from earlier work
Target sequence in this assay (Q92847 whole entry, species assumed): as the sequence (Q92847 whole entry) above

[4] = shift of potency compared to K-(D-1-Nal)-FwLL-NH2, inverse agonistic activity
[5] = agonistic activity, read-out: Emax
[6] = agonistic activity, ghrelin and analogs KwFxLL-NH2 (Table 3)
[7] = agonistic activity, difference to constitutive activity (Table 3)
[8] = shift in efficacy compared to ghrelin, agonistic activity
[9] = shift in potency compared to ghrelin, agonistic activity
[10] = inverse agonistic activity, read-out: efficacy (Emax)
[11] = inverse agonistic activity, difference to constitutive activity (Table 2)
[12] = shift in efficacy compared to KwFwLL-NH2, inverse agonistic activity
[13] = shift in potency compared to KwFwLL-NH2, inverse agonistic activity
[14] = inverse agonistic activity, analogs K-(D-1-Nal)-xwLL-NH2 (Table 5)
[15] = shift of efficacy compared to K-(D-1-Nal)-FwLL-NH2, inverse agonistic activity
[16] = inverse agonistic activity, analogs KxFwLL-NH2 (Table 2)

For `CC(C)C[C@H](NC(=O)[C@H](CC(C)C)NC(=O)[C@@H](Cc1c[nH]c2ccccc12)NC(=O)[C@@H](NC(=O)[C@@H](Cc1cccc2ccccc12)NC(=O)[C@@H](N)CCCCN)c1ccccc1)C(N)=O` [Peptide 25, K-(D-1-Nal)-(L-Phg)-wLL-NH2] (H-K[d1Nal][Phg][dW]LL-NH2; N-terminus assumed), the “x-fold (EC50)” value (ghrelin receptor [1]; [4]) was greater than 290 x-fold.
In the case of `CC(C)C[C@H](NC(=O)[C@H](CC(C)C)NC(=O)[C@@H](Cc1ccc(C(=O)c2ccccc2)cc1)NC(=O)[C@H](Cc1ccccc1)NC(=O)[C@@H](Cc1c[nH]c2ccccc12)NC(=O)[C@@H](N)CCCCN)C(N)=O` [Peptide 15, KwF-(D-Bpa)-LL-NH2], the “activity at the ghrelin receptor (in words)” value (from here on “activity … (in words)”) (ghrelin receptor [1]) is reported as “no activity”.
For `CC(C)C[C@H](NC(=O)[C@H](CC(C)C)NC(=O)[C@@H](Cc1ccc2ccccc2c1)NC(=O)[C@H](Cc1ccccc1)NC(=O)[C@@H](Cc1c[nH]c2ccccc12)NC(=O)[C@@H](N)CCCCN)C(N)=O` [Peptide 13, KwF-(D-2-Nal)-LL-NH2], the Emax (ghrelin receptor [1]; [5]) was 156%, the EC50 (ghrelin receptor [1]; [6]) was 12.6 nM and the “percent of ghrelin efficacy” value (ghrelin receptor [1]; agonistic activity, relative to ghrelin) was 96%. For the same compound, the “Emax ± SEM” value (ghrelin receptor [1]; [7]) was 156 ± 22 Δ %, the “x-fold (Emax)” value (ghrelin receptor [1]; [8]) was 1 x-fold and the “x-fold (EC50)” value (ghrelin receptor [1]; [9]) was 9.00 x-fold.
In the case of `CC(C)C[C@H](NC(=O)[C@H](CC(C)C)NC(=O)[C@@H](Cc1c[nH]c2ccccc12)NC(=O)[C@H](Cc1ccccc1)NC(=O)[C@@H](Cc1cccc2ccccc12)NC(=O)[C@@H](N)CCCCN)C(N)=O` [Peptide 3, K-(D-1-Nal)-FwLL-NH2], the “decrease of food intake compared to vehicle” value (rats) is reported as roughly 5 fold.
With `CC(C)C[C@H](NC(=O)[C@H](CC(C)C)NC(=O)[C@@H](Cc1ccc(-c2ccccc2)cc1)NC(=O)[C@H](Cc1ccccc1)NC(=O)[C@@H](Cc1c[nH]c2ccccc12)NC(=O)[C@@H](N)CCCCN)C(N)=O` [Peptide 14, KwF-(D-Bip)-LL-NH2] the “activity … (in words)” value (ghrelin receptor [1]) was “no activity”.
In the case of `CC(C)C[C@H](NC(=O)[C@H](CC(C)C)NC(=O)[C@@H](Cc1csc2ccccc12)NC(=O)[C@H](Cc1ccccc1)NC(=O)[C@@H](Cc1cccc2ccccc12)NC(=O)[C@@H](N)CCCCN)C(N)=O` [Peptide 19, K-(D-1-Nal)-F-(D-Bth)-LL-NH2], the Emax (ghrelin receptor [1]; [10]) is reported as 40% and the “Emax ± SEM” value (ghrelin receptor [1]; inverse agonistic activity, analogs KxFxLL-NH2 (Table 4)) is reported as 40 ± 2 Δ %.
With `CC(C)C[C@H](NC(=O)[C@H](CC(C)C)NC(=O)[C@@H](Cc1c[nH]c2ccccc12)NC(=O)[C@H](Cc1ccccc1)NC(=O)[C@H](NC(=O)[C@@H](N)CCCCN)C(c1ccccc1)c1ccccc1)C(N)=O` [Peptide 5, K-(D-Dip)-FwLL-NH2] the Emax (ghrelin receptor [1]; [10]) was greater than 80%, the “Emax ± SEM” value (ghrelin receptor [1]; [11]) was 87 ± 2 Δ % and the “increase in activity compared with peptide 2 (KwFwLL-NH2)” value (ghrelin receptor [1]; inverse agonistic activity) was 3.5 fold. The “x-fold (Emax)” value (ghrelin receptor [1]; [12]) was 2.4 x-fold and the “x-fold (EC50)” value (ghrelin receptor [1]; [13]) was 0.29 x-fold.
With `CC(C)C[C@H](NC(=O)[C@H](CC(C)C)NC(=O)[C@H](NC(=O)[C@H](Cc1ccccc1)NC(=O)[C@@H](Cc1c[nH]c2ccccc12)NC(=O)[C@@H](N)CCCCN)C(c1ccccc1)c1ccccc1)C(N)=O` [Peptide 16, KwF-(D-Dip)-LL-NH2] the “activity … (in words)” value (ghrelin receptor [1]) was “no activity”.
With `CCC[C@H](NC(=O)[C@@H](Cc1cccc2ccccc12)NC(=O)[C@@H](N)CCCCN)C(=O)N[C@H](Cc1c[nH]c2ccccc12)C(=O)N[C@@H](CC(C)C)C(=O)N[C@@H](CC(C)C)C(N)=O` [Peptide 24, K-(D-1-Nal)-(L-Nva)-wLL-NH2] (H-K[d1Nal][Nva][dW]LL-NH2) the “Emax ± SEM” value (ghrelin receptor [1]; [14]) was 71 ± 4 Δ %, the “x-fold (Emax)” value (ghrelin receptor [1]; [15]) was 1.1 x-fold and the “x-fold (EC50)” value (ghrelin receptor [1]; [4]) was 146.5 x-fold.
With `CC(C)C[C@H](NC(=O)[C@H](CC(C)C)NC(=O)[C@@H](Cc1c[nH]c2ccccc12)NC(=O)[C@H](CC1CCCCC1)NC(=O)[C@@H](Cc1cccc2ccccc12)NC(=O)[C@@H](N)CCCCN)C(N)=O` [Peptide 21, K-(D-1-Nal)-(Cha)-wLL-NH2] (H-K[d1Nal][Cha][dW]LL-NH2) the “Emax ± SEM” value (ghrelin receptor [1]; [14]) was 85 ± 3 Δ %, the “x-fold (Emax)” value (ghrelin receptor [1]; [15]) was 1.3 x-fold and the “x-fold (EC50)” value (ghrelin receptor [1]; [4]) was 28.5 x-fold.
For `CC(C)C[C@H](NC(=O)[C@H](CC(C)C)NC(=O)[C@@H](Cc1c[nH]c2ccccc12)NC(=O)[C@H](Cc1ccccc1)NC(=O)[C@@H](Cc1ccc(-c2ccccc2)cc1)NC(=O)[C@@H](N)CCCCN)C(N)=O` [Peptide 8, K-(D-Bip)-FwLL-NH2], the “activity … (in words)” value (ghrelin receptor [1]) was “moderate activity”, the Emax (ghrelin receptor [1]; [10]) was greater than 80% and the “Emax ± SEM” value (ghrelin receptor [1]; [11]) was 82 ± 0 Δ %. For the same compound, the “x-fold (Emax)” value (ghrelin receptor [1]; [12]) was 2.2 x-fold and the “x-fold (EC50)” value (ghrelin receptor [1]; [13]) was 4.03 x-fold.
With `CC(C)C[C@H](NC(=O)[C@H](CC(C)C)NC(=O)[C@@H](Cc1cccc2ccccc12)NC(=O)[C@H](Cc1ccccc1)NC(=O)[C@@H](Cc1cccc2ccccc12)NC(=O)[C@@H](N)CCCCN)C(N)=O` [Peptide 18, K-(D-1-Nal)-F-(D-1-Nal)-LL-NH2] the “activity … (in words)” value (ghrelin receptor [1]) was “totally suppressed activity”.
With `CC(C)C[C@H](NC(=O)[C@H](CC(C)C)NC(=O)[C@@H](Cc1c[nH]c2ccccc12)NC(=O)[C@H](Cc1ccc(C(C)(C)C)cc1)NC(=O)[C@@H](Cc1cccc2ccccc12)NC(=O)[C@@H](N)CCCCN)C(N)=O` [Peptide 22, K-(D-1-Nal)-(L-tBf)-wLL-NH2] the Emax (ghrelin receptor [1]; [10]) was 84%, the “Emax ± SEM” value (ghrelin receptor [1]; [14]) was 84 ± 3 Δ % and the “x-fold (Emax)” value (ghrelin receptor [1]; [15]) was 1.3 x-fold. For the same compound, the “x-fold (EC50)” value (ghrelin receptor [1]; [4]) was 36.5 x-fold.
For `CC(C)C[C@H](NC(=O)[C@H](CC(C)C)NC(=O)[C@@H](Cc1c[nH]c2ccccc12)NC(=O)[C@H](Cc1ccccc1)NC(=O)[C@@H](Cc1ccc2ccccc2c1)NC(=O)[C@@H](N)CCCCN)C(N)=O` [Peptide 6, K-(D-2-Nal)-FwLL-NH2], the “activity … (in words)” value (ghrelin receptor [1]) was “moderate activity”, the “Emax ± SEM” value (ghrelin receptor [1]; [11]) was 66 ± 4 Δ % and the EC50 (ghrelin receptor [1]; [16]) was 161 nM. For the same compound, the “x-fold (Emax)” value (ghrelin receptor [1]; [12]) was 1.8 x-fold and the “x-fold (EC50)” value (ghrelin receptor [1]; [13]) was 3.54 x-fold.
For `CC(C)C[C@H](NC(=O)[C@H](CC(C)C)NC(=O)[C@@H](Cc1cccc2ccccc12)NC(=O)[C@H](Cc1ccccc1)NC(=O)[C@@H](Cc1c[nH]c2ccccc12)NC(=O)[C@@H](N)CCCCN)C(N)=O` [Peptide 12, KwF-(D-1-Nal)-LL-NH2], the Emax (ghrelin receptor [1]; [5]) was 54%, the EC50 (ghrelin receptor [1]; [6]) was 17.9 nM and the “Emax ± SEM” value (ghrelin receptor [1]; [7]) was 54 ± 10 Δ %. The “x-fold (Emax)” value (ghrelin receptor [1]; [8]) was 0.3 x-fold and the “x-fold (EC50)” value (ghrelin receptor [1]; [9]) was 12.8 x-fold.
For `CC(C)C[C@H](NC(=O)[C@H](CC(C)C)NC(=O)[C@@H](Cc1c[nH]c2ccccc12)NC(=O)[C@H](Cc1ccccc1)NC(=O)[C@@H](Cc1ccc(C(=O)c2ccccc2)cc1)NC(=O)[C@@H](N)CCCCN)C(N)=O` [Peptide 7, K-(D-Bpa)-FwLL-NH2], the “activity … (in words)” value (ghrelin receptor [1]) was “moderate activity”, the “Emax ± SEM” value (ghrelin receptor [1]; [11]) was 67 ± 7 Δ % and the “x-fold (Emax)” value (ghrelin receptor [1]; [12]) was 1.8 x-fold. The “x-fold (EC50)” value (ghrelin receptor [1]; [13]) was 3.70 x-fold.
In the case of fQwFwLL-NH2, the “decrease of affinity in comparison to full-length modified substance P” value (ghrelin receptor [2]) is given as 5.3 fold and the “decrease of activity in comparison to full-length modified substance P” value (ghrelin receptor [3]) is given as 1.6 fold.
For `CC(C)C[C@H](NC(=O)[C@H](CC(C)C)NC(=O)[C@@H](Cc1c[nH]c2ccccc12)NC(=O)[C@H](Cc1ccccc1)NC(=O)[C@@H](Cc1c[nH]c2ccccc12)NC(=O)[C@@H](N)CCCCN)C(N)=O` [Peptide 2, KwFwLL-NH2, reference compound], the Emax (ghrelin receptor [1]; [10]) was 37%, the “Emax ± SEM” value (ghrelin receptor [1]; [11]) was 37 ± 5 Δ % and the EC50 (ghrelin receptor [1]; [16]) was 45.6 nM. The “x-fold (Emax)” value (ghrelin receptor [1]; [12]) was 1 x-fold and the “x-fold (EC50)” value (ghrelin receptor [1]; [13]) was 1 x-fold.
For “wFwLL-NH2 ([dW]F[dW]LL-NH2; N-terminus assumed; SMILES CC(C)C[C@H](NC(=O)[C@H](CC(C)C)NC(=O)[C@@H](Cc1c[nH]c2ccccc12)NC(=O)[C@H](Cc1ccccc1)NC(=O)[C@H](N)Cc1c[nH]c2ccccc12)C(N)=O)”, the IC50 (ghrelin receptor [2]; reference 17, read-out: IC50 (receptor binding)) is given as 530 ± 230 nM.
With `CC(C)C[C@H](NC(=O)[C@H](CC(C)C)NC(=O)[C@@H](Cc1c[nH]c2ccccc12)NC(=O)[C@H](Cc1ccccc1)NC(=O)[C@@H](Cc1ccccc1)NC(=O)[C@@H](N)CCCCN)C(N)=O` [Peptide 9, K-(D-Phe)-FwLL-NH2] the “activity … (in words)” value (ghrelin receptor [1]) was “moderate activity”, the “Emax ± SEM” value (ghrelin receptor [1]; [11]) was 62 ± 4 Δ % and the EC50 (ghrelin receptor [1]; [16]) was 241 nM. The “x-fold (Emax)” value (ghrelin receptor [1]; [12]) was 1.7 x-fold and the “x-fold (EC50)” value (ghrelin receptor [1]; [13]) was 5.28 x-fold.
